Results from patent US20140171448A1, “USE OF NICOTINIC ACETYLCHOLINE RECEPTOR ALPHA 7 ACTIVATORS” (NOVARTIS AG, priority 2011, published 2014).

Experiments:
parkinsonian primates = test: Antidyskinetic effect in parkinsonian primates (MPTP, levodopa-induced dyskinesia); format: in vivo, cynomolgus monkeys (Macaca fascicularis); conditions: with levodopa
Method: Female ovariectomized cynomolgus monkeys (Macaca fascicularis) are used in the assessment. The animals can be rendered parkinsonian by continuous infusion of 1-methyl-4-phenyl-1,2,3,6-tetrahydropyridine (MPTP) until they develop a stable parkinsonian syndrome. After recuperation, animals are treated daily with levodopa until clear and reproducible dyskinesias are developed.
Monkeys are observed through a one-way screen window in their home cage. They are observed and scored repeatedly at baseline and after a standard s.c. dose of levodopa. Locomotor activity is assessed and followed with an electronic monitoring system. Antiparkinsonian responses are evaluated by measuring the locomotor activity and a Parkinson disability scale (see Hadj Tahar A et al, Clin Neuropharmacol 2000; 23:195-202; and Samadi P et al, Neuropharmacology 2003; 45:954-963). Dyskinesias are closely monitored and scored according to a dyskinesia rating scale (also described in Hadj Tahar A et al; and Samadi P et al) every 15 minutes until the end of the effect. The doses of levodopa are chosen to induce motor activation and reproducible dyskinesia but no excessive agitation.
Monkeys are observed for at least two hours following an oral administration of vehicle. On a subsequent day, the dose of levodopa selected is tested once. The animals are observed (with measures of parkinsonian and dyskinetic scores) for the entire duration of the levodopa effect and are also monitored for locomotor activity. This provides vehicle control values as well as levodopa antiparkinsonian and dyskinesia response data for comparison with combinations of a α7-nAChR agonist/positive allosteric modulator and levodopa. The monkeys are then tested with a α7-nAChR agonist/positive allosteric modulator in combination with a fixed dose of levodopa. A suspension for oral administration of the α7-nAChR agonist/positive allosteric modulator is administered before levodopa. After each dose, the animals are observed (with measures of parkinsonian and dyskinetic scores) for the entire duration of effect and monitored for locomotor activity or any change in behavior (e.g. circling, excitement, lethargy and sleepiness).
Using this protocol, compound A-1 at a dose of 20 mg/kg was tested. Results based on five monkeys (levodopa/benserazide doses: 22.5/50 mg; 65/50 mg; 30/50 mg; 35/50 mg; and 25/50 mg) are shown in FIGS. 1-4.

[1] = biological target: T1, human neuronal nAChR α4β2 (Homo sapiens, UniProt P17787+P43681); test: α4β2-nAChR functional assay in human epithelial cell line; format: cell-based
T1 construct: expressed in transfected cells; host or cells: human epithelial cell line (named a human embryonic kidney cell line)
Method: To assess the activity of the compound of the invention on the human neuronal nAChR α4β2, a similar functional assay is carried out using a human epithelial cell line stably expressing the human α4β2 subtype (Michelmore et al., Naunyn-Schmiedeberg's Arch.

[2] = Oral bioavailability and brain penetration in mice; format: in vivo; conditions: 30 μmol/kg p.o.
Method: Compounds were orally (30 μmol/kg) administered. Male mice (30-35g, OF1/ICstrain) were sacrificed at indicated time points after oral administration. Trunk-blood was collected in EDTA-containing tubes and the brain was removed and immediately frozen on dry ice.
To 100 μl plasma 10 μl internal standard (1.0 pmol of a compound with solubility and ionization properties similar to test compounds) was added and extracted three times with 500 μl dichloromethane. The combined extracts were then dried under a stream of nitrogen and re-dissolved in 100 μl acetonitrile/water (70% acetonitrile). Brains were weighed and homogenized in water (1:5 w/v). Two 100 μl aliquots of each homogenate+10 μl of internal standard (same standard as used for the plasma samples) were extracted three times with 500 μl dichloromethane and further processed as the plasma samples. Samples were separated on Beckmann high-performance liquid chromatography equipment system with an autosampler (Gilson 233XL).
The limit of detection (LOD), defined as the lowest concentration of the extracted standard sample with a signal to noise ratio of ˜3.

T1 sequence (P43681 29-627 limits assumed): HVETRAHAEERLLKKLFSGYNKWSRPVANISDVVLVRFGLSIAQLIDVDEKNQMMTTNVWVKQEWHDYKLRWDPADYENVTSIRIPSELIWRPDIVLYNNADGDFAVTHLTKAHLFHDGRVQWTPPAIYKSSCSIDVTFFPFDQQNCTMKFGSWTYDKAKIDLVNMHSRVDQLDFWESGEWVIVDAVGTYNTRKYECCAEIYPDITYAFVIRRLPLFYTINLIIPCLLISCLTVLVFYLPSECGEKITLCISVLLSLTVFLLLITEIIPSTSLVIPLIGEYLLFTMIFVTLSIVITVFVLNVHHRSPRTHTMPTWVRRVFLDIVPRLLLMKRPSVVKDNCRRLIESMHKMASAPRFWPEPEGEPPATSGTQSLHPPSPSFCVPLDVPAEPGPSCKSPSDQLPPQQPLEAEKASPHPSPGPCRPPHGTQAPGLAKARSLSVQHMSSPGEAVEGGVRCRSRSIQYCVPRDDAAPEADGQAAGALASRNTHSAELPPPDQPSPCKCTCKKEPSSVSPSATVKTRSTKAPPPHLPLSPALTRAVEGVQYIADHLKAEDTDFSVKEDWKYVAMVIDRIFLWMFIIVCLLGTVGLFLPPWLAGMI
T1 sequence (P17787 26-502): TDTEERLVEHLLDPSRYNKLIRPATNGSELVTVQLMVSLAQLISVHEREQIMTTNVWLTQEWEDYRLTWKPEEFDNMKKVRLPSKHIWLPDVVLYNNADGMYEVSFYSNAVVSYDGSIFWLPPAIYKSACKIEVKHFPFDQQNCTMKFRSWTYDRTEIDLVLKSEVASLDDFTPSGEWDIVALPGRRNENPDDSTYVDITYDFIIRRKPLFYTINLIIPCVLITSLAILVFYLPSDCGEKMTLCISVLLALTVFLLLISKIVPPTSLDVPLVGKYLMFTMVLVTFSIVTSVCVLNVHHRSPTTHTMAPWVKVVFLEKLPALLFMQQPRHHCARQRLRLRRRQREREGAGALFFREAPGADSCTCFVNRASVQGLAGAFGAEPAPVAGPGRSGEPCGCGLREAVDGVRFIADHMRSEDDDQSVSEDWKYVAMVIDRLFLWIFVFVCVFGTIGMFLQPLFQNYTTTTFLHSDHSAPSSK

SMILES: C[C@H](OC(=O)N[C@@H]1CN2CCC1CC2)c1ccccc1F [A-1, (S)-(1-aza-bicyclo[2.2.2]oct-3-yl)-carbamic acid (S)-1-(2-fluoro-phenyl)-ethyl ester]
- effect on antiparkinsonian activity of levodopa (parkinsonian primates): does not lower the antiparkinsonian activity of levodopa
- effect on duration of the antiparkinsonian activity of levodopa (parkinsonian primates): significantly increases the duration of the antiparkinsonian activity seen for levodopa administration
- effect on levodopa-induced dyskinesia (parkinsonian primates): significantly reduces levodopa-induced dyskinesia
- effect on onset of action of levodopa (parkinsonian primates): does not delay the onset of action of levodopa
- EC50 [1]: > 100 µM
- Brain (pmoles/g ± SD) ([2]; 4 hour): 101.6 ± 39.6 pmol/g
- concentration at 0.5 h ([2]; male, OF1/IC, mouse, plasma, po, 0.5 hour, read-out: Plasma (pmoles/ml ± SD)): 635 ± 261 pmol/mL
- concentration at 1 h ([2]; male, OF1/IC, mouse, plasma, po, 1 hour, read-out: Plasma (pmoles/ml ± SD)): 685 ± 340 pmol/mL
- concentration at 2 h ([2]; male, OF1/IC, mouse, plasma, po, 2 hour, read-out: Plasma (pmoles/ml ± SD)): 168 ± 91.3 pmol/mL
- concentration at 4 h ([2]; male, OF1/IC, mouse, plasma, po, 4 hour, read-out: Plasma (pmoles/ml ± SD)): 85 ± 54.3 pmol/mL
- concentration at 6 h ([2]; male, OF1/IC, mouse, plasma, po, 6 hour, read-out: Plasma (pmoles/ml ± SD)): 29.5 ± 13.8 pmol/mL
- concentration at 24 h ([2]; male, OF1/IC, mouse, plasma, po, 24 hour, read-out: Plasma (pmoles/ml ± SD)): 3.8 ± 0.6 pmol/mL
